From patent US5026848A, “Novel generation of heteroaryloxyalkyl heterocycles with antipicornaviruses activities” (Synphar Laboratories Incorporated, priority 1988, dated 1991)

Columns and labels:
WI38 cells = test: Toxicity to WI38 cells (change in morphology in / growth inhibition of 25% of the cells); format: cell-based
Rhinovirus 1A = test: Anti-rhinovirus activity, cytopathic effect inhibition / neutral red dye uptake, type 1A; format: cell-based; settings: Enterovirus, WI-38; Table I; WI38 cells, 33° C., 3-4 days; NA = Not active; read-out: MIC50 Rhinovirus 1A
Rhinovirus 1B = test: Anti-rhinovirus activity, cytopathic effect inhibition / neutral red dye uptake, type 1B; format: cell-based; settings: Enterovirus, WI-38; Table II; one of seven commonest serotypes; read-out: MIC 50 Rhinovirus Type 1B
Rhinovirus 2 = test: Anti-rhinovirus activity, cytopathic effect inhibition / neutral red dye uptake, type 2; format: cell-based; settings: Enterovirus, WI-38; Table II; one of seven commonest serotypes; read-out: MIC 50 Rhinovirus Type 2
Rhinovirus 4 = test: Anti-rhinovirus activity, cytopathic effect inhibition / neutral red dye uptake, type 4; format: cell-based; settings: Enterovirus, WI-38; Table II; one of seven commonest serotypes; read-out: MIC 50 Rhinovirus Type 4
Rhinovirus 15 = test: Anti-rhinovirus activity, cytopathic effect inhibition / neutral red dye uptake, type 15; format: cell-based; settings: Enterovirus, WI-38; Table II; one of seven commonest serotypes; read-out: MIC 50 Rhinovirus Type 15
Rhinovirus 17 = test: Anti-rhinovirus activity, cytopathic effect inhibition / neutral red dye uptake, type 17; format: cell-based; settings: Enterovirus, WI-38; Table II; read-out: MIC 50 Rhinovirus Type 17
Rhinovirus 23 = test: Anti-rhinovirus activity, cytopathic effect inhibition / neutral red dye uptake, type 23; format: cell-based; settings: Enterovirus, WI-38; Table II; read-out: MIC 50 Rhinovirus Type 23
Rhinovirus 29 = test: Anti-rhinovirus activity, cytopathic effect inhibition / neutral red dye uptake, type 29; format: cell-based; settings: Enterovirus, WI-38; Table II; one of seven commonest serotypes; read-out: MIC 50 Rhinovirus Type 29
Rhinovirus 30 = test: Anti-rhinovirus activity, cytopathic effect inhibition / neutral red dye uptake, type 30; format: cell-based; settings: Enterovirus, WI-38; Table II; read-out: MIC 50 Rhinovirus Type 30
Rhinovirus 31 = test: Anti-rhinovirus activity, cytopathic effect inhibition / neutral red dye uptake, type 31; format: cell-based; settings: Enterovirus, WI-38; Table II; one of seven commonest serotypes; read-out: MIC 50 Rhinovirus Type 31
Rhinovirus 32 = test: Anti-rhinovirus activity, cytopathic effect inhibition / neutral red dye uptake, type 32; format: cell-based; settings: Enterovirus, WI-38; Table II; read-out: MIC 50 Rhinovirus Type 32
Rhinovirus 36 = test: Anti-rhinovirus activity, cytopathic effect inhibition / neutral red dye uptake, type 36; format: cell-based; settings: Enterovirus, WI-38; Table II; read-out: MIC 50 Rhinovirus Type 36
Rhinovirus 39 = test: Anti-rhinovirus activity, cytopathic effect inhibition / neutral red dye uptake, type 39; format: cell-based; settings: Enterovirus, WI-38; Table I; WI38 cells, 33° C., 3-4 days; read-out: MIC50 Rhinovirus 39
Rhinovirus 44 = test: Anti-rhinovirus activity, cytopathic effect inhibition / neutral red dye uptake, type 44; format: cell-based; settings: Enterovirus, WI-38; Table II; read-out: MIC 50 Rhinovirus Type 44
Rhinovirus 49 = test: Anti-rhinovirus activity, cytopathic effect inhibition / neutral red dye uptake, type 49; format: cell-based; settings: Enterovirus, WI-38; Table II; read-out: MIC 50 Rhinovirus Type 49
Rhinovirus 53 = test: Anti-rhinovirus activity, cytopathic effect inhibition / neutral red dye uptake, type 53; format: cell-based; settings: Enterovirus, WI-38; Table II; read-out: MIC 50 Rhinovirus Type 53
Rhinovirus 56 = test: Anti-rhinovirus activity, cytopathic effect inhibition / neutral red dye uptake, type 56; format: cell-based; settings: Enterovirus, WI-38; Table II; read-out: MIC 50 Rhinovirus Type 56
Rhinovirus 63 = test: Anti-rhinovirus activity, cytopathic effect inhibition / neutral red dye uptake, type 63; format: cell-based; settings: Enterovirus, WI-38; Table II; read-out: MIC 50 Rhinovirus Type 63
Rhinovirus 86 = test: Anti-rhinovirus activity, cytopathic effect inhibition / neutral red dye uptake, type 86; format: cell-based; settings: Enterovirus, WI-38; Table II; read-out: MIC 50 Rhinovirus Type 86
Rhinovirus 88 = test: Anti-rhinovirus activity, cytopathic effect inhibition / neutral red dye uptake, type 88; format: cell-based; settings: Enterovirus, WI-38; Table II; read-out: MIC 50 Rhinovirus Type 88
Polio 1 = test: microbe, parasite or virus in culture; format: cell-based; settings: Enterovirus, read-out: MIC 50 Polio 1
Coxsacki-A9 = test: Activity against other picornaviruses, Coxsacki-A9; format: cell-based; settings: Enterovirus, read-out: MIC 50 Cox. A9
Coxsacki-A21 = test: Activity against other picornaviruses, Coxsacki-A21; format: cell-based; settings: Enterovirus, read-out: MIC 50 Cox. A21
Coxsacki-B1 = test: Activity against other picornaviruses, Coxsacki-B1; format: cell-based; settings: Enterovirus, read-out: MIC 50 Cox. B1
Coxsacki-B4 = test: Activity against other picornaviruses, Coxsacki-B4; format: cell-based; settings: Enterovirus, read-out: MIC 50 Cox. B4
Echo-7 = test: Activity against other picornaviruses, Echo-7; format: cell-based; settings: Enterovirus, read-out: MIC 50 Echo 7
Echo-11 = test: Activity against other picornaviruses, Echo-11; format: cell-based; settings: Enterovirus, read-out: MIC 50 Echo 11
Enterovirus serotypes = format: cell-based
HRV-1A and HRV-39 = test: Anti-rhinovirus activity against HRV-1A and HRV-39; settings: in words
[1] = system: 20 serotypes of rhinovirus; test: Anti-rhinovirus activity against a panel of 20 serotypes; settings: Table II; numerator; denominator 20, but 10 for compound 8 and 6 for compound 30

c1ccc2c(c1)oc1ccc(OCCCCCCc3ccns3)cc12 [Compound 25]
> 25 µg/mL: IC50 (Rhinovirus 4) | EC50 (Rhinovirus 31) | EC50 (Rhinovirus 36) | EC50 (Rhinovirus 49) | IC50 (Coxsacki-B1) | IC50 (Coxsacki-B4) | IC50 (Echo-11)
5 µg/mL: IC50 (Rhinovirus 1B) | IC50 (Rhinovirus 23) | IC50 (Rhinovirus 29) | EC50 (Rhinovirus 39) | EC50 (Rhinovirus 44) | EC50 (Rhinovirus 63) | IC50 (Coxsacki-A21) | IC50 (Echo-7)
remarkably inhibitory activity: inhibitory activity against HRV-1A and HRV-39 in vitro (HRV-1A and HRV-39)
remarkable inhibitory activity: inhibitory activity against the members of the Entero virus family (Enterovirus serotypes)
50 µg/mL: Toxicity (WI38 cells; Table I, concentration with change in morphology in 25% of WI38 cells) | Toxicity (WI38 cells; Table II) | Toxicity (WI38 cells; Table III)
4: All Enterovirus Serotypes (number of serotypes active / tested) (Enterovirus serotypes; Table III, numerator, denominator 7, but 5 for compound 8)
16: All Rhinovirus Serotypes (number of serotypes active / tested) [1]
20 µg/mL: IC50 (Rhinovirus 2)
10 µg/mL: EC50 (Rhinovirus 1A) | IC50 (Rhinovirus 15) | IC50 (Rhinovirus 17) | IC50 (Rhinovirus 30) | EC50 (Rhinovirus 32) | EC50 (Rhinovirus 53) | EC50 (Rhinovirus 56) | EC50 (Rhinovirus 86) | EC50 (Rhinovirus 88) | EC50 (Polio 1) | EC50 (Coxsacki-A9)
